Consider two molecules from patent US8329710B2, “Metformin folate and preparation of the same” (Sino-Us Pficker Pharmaceuticals Co., priority 2006, dated 2012).

SMILES strings stand for the structures. Counter-ions that a name gives are not always drawn.

In data set [1] the test system is normal healthy mice. Kind of data set: Animal test: homocysteine concentration in blood of normal healthy mice (control groups), 10 days. Type of data set: in vivo. The settings on record: metformin hydrochloride 100 mg/kg body weight. The method, then: (§1) The female mice were induced to diabetic mice by streptozotocin (body weight […]), 6 animals in one group. The data in the table below represented the average of the values of six mice. Normal healthy mice were used as control group 1, control group 2, and control group 3. Control group 1 was administered folacin-metformin (350 mg/kg body weight), control group 2 was administered metformin hydrochloride (100 mg/kg body weight), and control group 3 was administered normal saline. Diabetic mice were divided into three groups, each group was fed folacin-metformin (350 mg/kg body weight), metformin hydrochloride (100 mg/kg body weight) and normal saline, separately. The test lasted for 10 days, and the blood glucose levels and the homocysteine concentrations were detected for all the mice by the end of the test.
(§2) On day 10 of the test, test mice were anaesthetized by i.p. injection of 65 mg/kg body weight of sodium pentobarbital, then collected blood sample from the abdominal aorta. Blood glucose levels were determined by a standard protocol (Methods of Enzymatic Analysis, Vol. 3, 2nd ed. Verlag Chemie International, 1981, p1196-1201), and the homocysteine concentrations in the blood samples were determined using high performance liquid chromatograph according to the literature (Eur. J. Clin. Chem. Clin. Biochem. 1991, 29, 549-554).

The subject of data set [2] is diabetic mice induced by streptozotocin. Kind of data set: Animal test: homocysteine concentration in blood of streptozotocin-induced diabetic mice, 10 days. The settings on record: metformin hydrochloride 100 mg/kg body weight. The format is in vivo. The method, then: as §1, §2
For data set [3], the system named is normal healthy mice. Kind of data set: Animal test: blood glucose level in normal healthy mice (control groups), 10 days. The format is in vivo. The settings on record: for blood glucose level, After use: normal healthy mice, day 10, folacin-metformin 350 mg/kg body weight, metformin hydrochloride 100 mg/kg body weight, mean of 6 mice. As for the experimental part:
as §1, §2

Data set [4] has as its system diabetic mice induced by streptozotocin. Kind of data set: Animal test: blood glucose level in streptozotocin-induced diabetic mice, 10 days. Type of data set: in vivo. The note with it: for capacity of lowering blood glucose, folacin-metformin compared with metformin hydrochloride (in words): diabetic mice, 10 days, 350 mg/kg vs 100 mg/kg body weight; for blood glucose level, After use: streptozotocin diabetic mice, day 10, folacin-metformin 350 mg/kg body weight, metformin hydrochloride 100 mg/kg body weight, mean of 6 mice. The method, then:
as §1, §2

The conditions of data set [5]: after long-term use, recent clinical application; cited from earlier work.

For `CN(C)C(=N)N=C(N)N.Nc1nc2ncc(CNc3ccc(C(=O)N[C@@H](CCC(=O)O)C(=O)O)cc3)nc2c(=O)[nH]1` [folacin-metformin], the “effect on the blood homocysteine concentration (in words)” value in the data set on normal healthy mice [1] (healthy mice, 10 days, folacin-metformin 350 mg/kg) is “slight lowering effect”. Moreover, the “homocystein concentration, After use” value in the data set on normal healthy mice [1] (normal healthy mice, day 10, folacin-metformin 350 mg/kg body weight, mean of 6 mice) was determined as 9.3 ± 1.1 µmol/L; in data set [2] (streptozotocin diabetic mice, day 10, folacin-metformin 350 mg/kg body weight, mean of 6 mice), 8.9 ± 0.9 µmol/L. Besides, in data set [2] (diabetic mice, 10 days, folacin-metformin 350 mg/kg), the “increase of the homocysteine concentration while lowering the blood glucose (in words)” value was “does not increase”. Besides, the “effect on the blood glucose level (in words)” value in the data set on normal healthy mice [3] (healthy mice, 10 days, 350 mg/kg body weight) is “no effect”. For the same molecule, the “blood glucose level, After use” value is 7.2 ± 1.2 mmol/L with normal healthy mice [3] and 7.4 ± 1.7 mmol/L in data set [4]. In addition, the “capacity of lowering blood glucose, folacin-metformin compared with metformin hydrochloride (in words)” value in data set [4] is given as “no difference”.

`CN(C)C(=N)N=C(N)N` [metformin hydrochloride, reference compound]: in data set [5], the “homocystein concentration in the patient (in words)” value is given as “substantially increased”. In addition, the “blood glucose level, After use” value with normal healthy mice [3] is given as 7.4 ± 1.7 mmol/L. Moreover, in data set [4], the “capacity of lowering blood glucose, folacin-metformin compared with metformin hydrochloride (in words)” value is listed as “no difference” and the “blood glucose level, After use” value is given as 7.6 ± 1.4 mmol/L.
